According to ChEMBL document CHEMBL1153245, “A profile of the in vitro anti-tumor activity of imidazolium-based ionic liquids” (2010):

Key:
Type in all cases: functional
CCRF-CEM = assay: Anticancer activity against human CCRF-CEM cells after 48 hrs by sulforhodamine B assay
HL-60(TB) = assay: Anticancer activity against human HL-60(TB) cells after 48 hrs by sulforhodamine B assay; settings: for CC50: read-out: LC50 (the source's name)
K562 = assay: Anticancer activity against human K562 cells after 48 hrs by sulforhodamine B assay
MOLT-4 = assay: Anticancer activity against human MOLT4 cells after 48 hrs by sulforhodamine B assay
[1] = Anticancer activity against human […] cells after 48 hrs by sulforhodamine B assay; settings: for CC50: read-out: LC50 (the source's name)
A549 = assay: Anticancer activity against human A549 cells after 48 hrs by sulforhodamine B assay
EKVX = assay: Anticancer activity against human EKVX cells after 48 hrs by sulforhodamine B assay; settings: for CC50: read-out: LC50 (the source's name)
NCI-H322M = assay: Anticancer activity against human NCI-H322M cells after 48 hrs by sulforhodamine B assay
NCI-H522 = assay: Anticancer activity against human NCI-H522 cells after 48 hrs by sulforhodamine B assay
HCT-15 = assay: Anticancer activity against human HCT15 cells after 48 hrs by sulforhodamine B assay; settings: for CC50: read-out: LC50 (the source's name)
HT-29 = assay: Anticancer activity against human HT-29 cells after 48 hrs by sulforhodamine B assay; settings: for CC50: read-out: LC50 (the source's name)
SF-268 = assay: Anticancer activity against human SF268 cells after 48 hrs by sulforhodamine B assay; settings: for CC50: read-out: LC50 (the source's name)
SNB-19 = assay: Anticancer activity against human SNB19 cells after 48 hrs by sulforhodamine B assay; settings: for CC50: read-out: LC50 (the source's name)
LOX IMVI = assay: Anticancer activity against human LOXIMVI cells after 48 hrs by sulforhodamine B assay; settings: for CC50: read-out: LC50 (the source's name)
Malme-3M = assay: Anticancer activity against human MALME-3M cells after 48 hrs by sulforhodamine B assay
SK-MEL-28 = assay: Anticancer activity against human SK-MEL-28 cells after 48 hrs by sulforhodamine B assay
SK-MEL-5 = assay: Anticancer activity against human SK-MEL-5 cells after 48 hrs by sulforhodamine B assay; settings: for CC50: read-out: LC50 (the source's name)
UACC-62 = assay: Anticancer activity against human UACC62 cells after 48 hrs by sulforhodamine B assay
OVCAR-4 = assay: Anticancer activity against human OVCAR4 cells after 48 hrs by sulforhodamine B assay; settings: for CC50: read-out: LC50 (the source's name)
OVCAR-5 = assay: Anticancer activity against human OVCAR5 cells after 48 hrs by sulforhodamine B assay; settings: for CC50: read-out: LC50 (the source's name)
786-0 = assay: Anticancer activity against human 786-0 cells after 48 hrs by sulforhodamine B assay
ACHN = assay: Anticancer activity against human ACHN cells after 48 hrs by sulforhodamine B assay
CAKI-1 = assay: Anticancer activity against human Caki1 cells after 48 hrs by sulforhodamine B assay
NCI/ADR-RES = assay: Anticancer activity against human NCI/ADR-RES cells after 48 hrs by sulforhodamine B assay
MDA-MB-231 = assay: Anticancer activity against human MDA-MB-231 cells after 48 hrs by sulforhodamine B assay; settings: for CC50: read-out: LC50 (the source's name)
[2] = Anticancer activity against human Hs 578T cells after 48 hrs by sulforhodamine B assay; settings: for CC50: read-out: LC50 (the source's name)
MDA-MB-435 = assay: Anticancer activity against human MDA-MB-435 cells after 48 hrs by sulforhodamine B assay; settings: for CC50: read-out: LC50 (the source's name)
BT-549 = assay: Anticancer activity against human BT549 cells after 48 hrs by sulforhodamine B assay; settings: for CC50: read-out: LC50 (the source's name)
T47D = assay: Anticancer activity against human T47D cells after 48 hrs by sulforhodamine B assay
IGROV-1 = assay: Anticancer activity against human IGROV1 cells after 48 hrs by sulforhodamine B assay; settings: IGROV-1, 48 h
[3] = Homo sapiens, NCI/ADR-RES, 48 h

`CCCCCCCCCCCCCCCCCC[n+]1ccn(C)c1.F[P-](F)(F)(F)(F)F` showed a GI50 (CCRF-CEM) of 0.129 µM, an LC50 (CCRF-CEM) of 0.98 µM and a GI50 (HL-60(TB)) of 0.185 µM. The CC50 (HL-60(TB)) was greater than 100 µM, the GI50 (K562) was 0.935 µM and the GI50 (MOLT-4) was 0.589 µM. For the same compound, the LC50 (MOLT-4) was greater than 100 µM, the GI50 [1] was 0.017 µM and the CC50 [1] was 0.811 µM. The LC50 (concentration killing 50% of cells) (A549) was 9.37 µM, the GI50 (EKVX) was 1.12 µM and the CC50 (EKVX) was 7.64 µM. The GI50 (NCI-H322M) was 1.61 µM, the LC50 (NCI-H322M) was greater than 100 µM and the GI50 (NCI-H522) was 1.16 µM. For the same compound, the LC50 (NCI-H522) was 6.77 µM, the GI50 (HCT-15) was 1.01 µM and the CC50 (HCT-15) was 4.66 µM. For the same compound, the GI50 (HT-29) was 0.408 µM, the CC50 (HT-29) was greater than 100 µM and the GI50 (SF-268) was 1.26 µM. It also gave a CC50 (SF-268) of 6.06 µM, a GI50 (SNB-19) of 1.45 µM and a CC50 (SNB-19) of 7.89 µM. It also gave a GI50 (LOX IMVI) of 0.385 µM, a CC50 (LOX IMVI) of 3.84 µM and a GI50 (Malme-3M) of 1.02 µM. For the same compound, the LC50 (concentration killing 50% of cells) (Malme-3M) was 7.69 µM, the LC50 (SK-MEL-28) was 5.16 µM and the GI50 (SK-MEL-5) was 0.617 µM. It also gave a CC50 (SK-MEL-5) of 4.37 µM, a GI50 (UACC-62) of 1.18 µM and an LC50 (UACC-62) of 5.2 µM. The GI50 (OVCAR-4) was 1.03 µM, the CC50 (OVCAR-4) was 6.33 µM and the GI50 (OVCAR-5) was 1.08 µM. It also gave a CC50 (OVCAR-5) of 7.24 µM, a GI50 (786-0) of 1.25 µM and an LC50 (50% lethal concentration) (786-0) of 8.58 µM. It also gave a GI50 (ACHN) of 0.934 µM, an LC50 (ACHN) of 4.62 µM and a GI50 (CAKI-1) of 0.791 µM. The LC50 (CAKI-1) was 8.9 µM, the GI50 (NCI/ADR-RES) was 1.45 µM and the GI50 (MDA-MB-231) was 1.03 µM. The CC50 (MDA-MB-231) was 5.11 µM, the GI50 [2] was 0.536 µM and the CC50 [2] was 6.15 µM. For the same compound, the GI50 (MDA-MB-435) was 0.851 µM, the CC50 (MDA-MB-435) was 6.64 µM and the GI50 (BT-549) was 1.29 µM. It also gave a CC50 (BT-549) of 6.91 µM and a GI50 (T47D) of 0.719 µM.

`CCCCCCCCCCCCCCCCCC[n+]1ccn(C)c1.[Cl-]` showed a GI50 (CCRF-CEM; Homo sapiens, CCRF-CEM, 48 h) of 0.127 µM, an LC50 (CCRF-CEM; Homo sapiens, CCRF-CEM, 48 h) of 0.72 µM and a GI50 (HL-60(TB); Homo sapiens, HL-60, 48 h) of 0.143 µM. It also gave a CC50 (HL-60(TB)) of 0.791 µM, a GI50 (K562) of 0.385 µM and a CC50 (K562; Homo sapiens, K562, 48 h, read-out: LC50 (the source's name)) greater than 100 µM. It also gave a GI50 (MOLT-4) of 0.189 µM, an LC50 (MOLT-4) of 2.16 µM and a GI50 ([1]; Homo sapiens, RPMI8266, 48 h) of 0.027 µM. The CC50 ([1]; Homo sapiens, RPMI8266, 48 h) was 1.21 µM, the GI50 (A549; Homo sapiens, A549, 48 h) was 0.639 µM and the LC50 (concentration killing 50% of cells) (A549; Homo sapiens, A549, 48 h) was 10 µM. It also gave a GI50 (EKVX; Homo sapiens, EKVX, 48 h) of 0.649 µM, a CC50 (EKVX; Homo sapiens, EKVX, 48 h) of 7.78 µM and an LC50 (NCI-H322M) of 5.95 µM. For the same compound, the GI50 (NCI-H322M; Homo sapiens, NCI-H322M, 48 h) was 1.3 µM, the GI50 (NCI-H522) was 0.364 µM and the LC50 (NCI-H522; Homo sapiens, NCI-H522, 48 h) was 6.45 µM. The GI50 (HCT-15) was 0.461 µM, the CC50 (HCT-15; Homo sapiens, HCT-15, 48 h) was 4.11 µM and the GI50 (HT-29; Homo sapiens, HT-29, 48 h) was 0.315 µM. For the same compound, the CC50 (HT-29) was 5.51 µM, the GI50 (SF-268; Homo sapiens, SF-268, 48 h) was 0.978 µM and the CC50 (SF-268; Homo sapiens, SF-268, 48 h) was 5.88 µM. The GI50 (SNB-19; Homo sapiens, SNB-19, 48 h) was 1.22 µM, the CC50 (SNB-19) was greater than 100 µM and the GI50 (LOX IMVI) was 0.189 µM. It also gave a CC50 (LOX IMVI) of 1.48 µM, a GI50 (Malme-3M) of 0.368 µM and an LC50 (concentration killing 50% of cells) (Malme-3M; Homo sapiens, Malme-3M, 48 h) of 5.83 µM. It also gave a GI50 (SK-MEL-28; Homo sapiens, SK-MEL-28, 48 h) of 0.879 µM, an LC50 (SK-MEL-28; Homo sapiens, SK-MEL-28, 48 h) of 5.75 µM and a GI50 (SK-MEL-5; Homo sapiens, SK-MEL-5, 48 h) of 0.414 µM. It also gave a CC50 (SK-MEL-5; Homo sapiens, SK-MEL-5, 48 h) of 3.97 µM, a GI50 (UACC-62; Homo sapiens, UACC-62, 48 h) of 0.848 µM and an LC50 (UACC-62; Homo sapiens, UACC-62, 48 h) of 5.07 µM. The GI50 (IGROV-1) was 0.175 µM, the CC50 (IGROV-1; read-out: LC50 (the source's name)) was greater than 100 µM and the GI50 (OVCAR-4; Homo sapiens, OVCAR-4, 48 h) was 0.778 µM. The CC50 (OVCAR-4) was greater than 100 µM, the GI50 (OVCAR-5; Homo sapiens, OVCAR-5, 48 h) was 0.819 µM and the CC50 (OVCAR-5; Homo sapiens, OVCAR-5, 48 h) was 7.89 µM. It also gave a GI50 (786-0; Homo sapiens, 786-0, 48 h) of 0.669 µM, an LC50 (50% lethal concentration) (786-0; Homo sapiens, 786-0, 48 h) of 6.02 µM and a GI50 (ACHN) of 0.446 µM. The LC50 (ACHN; Homo sapiens, ACHN, 48 h) was 4.23 µM, the GI50 (CAKI-1; Homo sapiens, CAKI-1, 48 h) was 0.429 µM and the LC50 (CAKI-1; Homo sapiens, CAKI-1, 48 h) was 7.45 µM. The GI50 (NCI/ADR-RES; [3]) was 1.66 µM, the LC50 (NCI/ADR-RES; [3]) was greater than 100 µM and the GI50 (MDA-MB-231) was 0.449 µM. For the same compound, the CC50 (MDA-MB-231; Homo sapiens, MDA-MB-231, 48 h) was 4.86 µM, the GI50 ([2]; Homo sapiens, Hs-578T, 48 h) was 0.335 µM and the CC50 ([2]; Homo sapiens, Hs-578T, 48 h) was 6.31 µM. It also gave a GI50 (MDA-MB-435; Homo sapiens, MDA-MB-435, 48 h) of 0.684 µM, a CC50 (MDA-MB-435; Homo sapiens, MDA-MB-435, 48 h) of 7.96 µM and a GI50 (BT-549) of 0.557 µM. It also gave a CC50 (BT-549; Homo sapiens, BT-549, 48 h) of 5.33 µM, a GI50 (T47D; Homo sapiens, T47D, 48 h) of 0.546 µM and a CC50 (T47D; Homo sapiens, T47D, 48 h, read-out: LC50 (the source's name)) greater than 100 µM.
